Source: US20160222014A1, “COMPOUNDS FOR REGULATING FAK AND/OR SRC PATHWAYS” (ASANA BIOSCIENCES, LLC, priority 2013, published 2016)

Assays:
[1] = biological target: T1, AURKB (Aurora B) enzyme (Homo sapiens, UniProt Q96GD4); experiment: Aurora B HTRF assay; assay type: biochemical; conditions: read-out: AuroraB IC50
T1 construct: purchased Invitrogen PVR 130
How it was run: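 HTRF kinase assay with 5 nM Aurora B and 50 nM ULight-PLK (Ser137) peptide, with a reagent at 30 μM final; 1 h at rt. Reaction stopped with EDTA, and phospho-peptide detected with 2 nM Eu-anti-P-PLK(Ser137) antibody after 1 h at rt, read as HTRF.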

[2] = biological target: T2, FAK phosphorylated at Y397 in HEK-FAK cell line overexpressing human FL FAK protein (Homo sapiens, UniProt Q05397); experiment: Cell based assay, Phospho-FAK ELISA; conditions: HEK stb; read-out: pFAK EC50 (μM) HEK stb
T2 construct: expressed in transfected cells
Excerpt: D. Cell Based Assay-Phospho-FAK ELISA
The DuoSet IC ELISA (R&D systems—Cat no. DYC4528-5) provided the basic components required for the development of sandwich ELISAs to measure Focal Adhesion Kinase 1 (FAK) phosphorylated at Y397 in cell lysates. An immobilized capture antibody specific for FAK, also known as PTK2, binds both phosphorylated and unphosphorylated protein. After washing away unbound material, a biotinylated detection antibody specific for FAK phosphorylated at Y397 was used to detect only phosphorylated protein, utilizing a standard Streptavidin-HRP format. The cell line used for the assay was a stable HEK-FAK cell line overexpressing human FL FAK protein, which was generated as follows.
HEK293 cells (ATCC® CRL-1573™, 10801 University Boulevard, Manassas, Va. 20110 USA) were seeded in four 100 mm petri dishes at a seeding density of 1.5×10^6 cells per plate and incubated overnight at 37° C. in a 5% CO2 incubator. The transfection mix was prepared as follows. (A) 10 μg DNA (pCDNA4 V5/HisA vector containing Zeocin as mammalian selection marker, procured from Invitrogen) with the full length human FAK gene represented by the nucleotide sequence provided in NCBI Reference Sequence: NM_153831.3, SEQ ID NO: 1:
was added to 1.5 mL Opti-MEM® (reduced serum media is a modification of Eagle's Minimum Essential Media, buffered with HEPES and sodium bicarbonate and supplemented with hypoxanthine, thymidine, sodium pyruvate, L-glutamine, trace elements and growth factors commercially available from Invitrogen) and incubated at room temperature for 5 minutes. (B) 30 μL Lipofectamine™ Transfection reagent (Life Technologies) was added to 1.5 mL Opti-MEM® and incubated at room temperature for 5 minutes. Following this, (a) and (b) were mixed and incubated at room temperature for 20 minutes. Media was removed from cells and washed with 1× phosphate buffered saline (PBS) and the transfection mix prepared above was mixed with 3 mL of Opti-MEM®, added to the cells and incubated at 37° C. Four hours later, 6 mL of 20% Dulbecco's Modified Eagle Medium (DMEM) was added to the plates and incubated at 37° C. in a 5% CO2 incubator. Approximately 72 hours after transfection, cells were subcultured at various dilutions with fresh medium containing 0.8 mg/mL Zeocin™ (Life Technologies). Cells were replenished with selective medium every 3-4 days until cell foci were identified in the FAK transfected cells and most of the cells died in the control plates. Cells from these foci were grown in the presence of selective media and the expression of FAK was confirmed by Western Blotting. Over expression of FAK in the stably-transfected cells was quantified in the cell-based ELISA assay described below by determining the signal window, with a signal window of 2 or above considered to be robust). The HEK-FAK stable cell line thus was maintained in 0.8 mg/mL Zeocin™ (Life Technologies) and used in cell-based ELISA to assess autophosphorylation of FAK.
(i) Materials • 1. Phospho-FAK (Y397)-Capture Antibody • 2. Phospho-FAK (Y397)-Detection Antibody • 3. Streptavidin-HRP • 4. Cells used for the assay-HEK over expressing human FL FAK protein
(ii) Solutions • PBS—137 mM NaCl, 2.7 mM KCl, 8.1 mM Na2HPO4, 1.5 mM KH2PO4, pH 7.2-7.4, 0.2 μm filtered. • Wash Buffer—0.05% Tween20™ in PBS, pH 7.2-7.4 • Block Buffer—1% BSA, 0.05% NaN3, in PBS, pH 7.2-7.4. • IC Diluent #1-1% BSA in PBS, pH 7.2-7.4, 0.2 μm filtered. • IC Diluent #8-1 mM EDTA, 0.5% Triton™ X-100, 5 mM NaF in PBS, pH 7.2-7.4. IC Diluent #8 was also the base buffer for IC Diluent #3, IC Diluent #7, and Lysis. • Buffer #6. […]

[3] = biological target: T3, Recombinant Src enzyme (Homo sapiens, UniProt P12931); experiment: Src HTRF assay; assay type: biochemical
T3 construct: purchased Millipore 14-326; host or cells: Sf21 insect cells
How it was run: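 Sf21-expressed recombinant Src at 5 nM final with biotinylated N-terminally tagged Tyk2 peptide substrate at 0.5 μM final; a component freshly made in enzyme assay buffer pH7.4 was used at 10 μM final. Buffer, supplements, compound handling and procedure as in the FAK HTRF assay; dasatinib included.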

[4] = biological target: T4, recombinant human FAK1 (Homo sapiens, UniProt Q05397); experiment: FAK1 HTRF assay; assay type: biochemical
T4 construct: fused on or other part: N-terminal 6xHis tag
How it was run: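 His-tagged human FAK1 (residues 692–end, Sf9-expressed), 10 nM final, with 0.5 μM biotinylated gastrin-precursor Tyr87 peptide and a 10 μM final reagent in pH 7.4 buffer, 45 min at rt. Detection used Eu anti-pTyr antibody plus SA-APC (665/620 nm). Compounds top concentration 10 μM; IC50 from % inhibition.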

T4 sequence (Q05397 422-680 limits assumed): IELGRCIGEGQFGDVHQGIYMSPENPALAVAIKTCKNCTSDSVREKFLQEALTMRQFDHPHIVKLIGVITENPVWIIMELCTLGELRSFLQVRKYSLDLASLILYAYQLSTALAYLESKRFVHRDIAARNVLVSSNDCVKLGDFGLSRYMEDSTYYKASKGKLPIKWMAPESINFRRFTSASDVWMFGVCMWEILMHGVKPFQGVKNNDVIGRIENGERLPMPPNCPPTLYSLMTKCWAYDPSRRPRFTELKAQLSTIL
T2 sequence (Q05397 whole entry): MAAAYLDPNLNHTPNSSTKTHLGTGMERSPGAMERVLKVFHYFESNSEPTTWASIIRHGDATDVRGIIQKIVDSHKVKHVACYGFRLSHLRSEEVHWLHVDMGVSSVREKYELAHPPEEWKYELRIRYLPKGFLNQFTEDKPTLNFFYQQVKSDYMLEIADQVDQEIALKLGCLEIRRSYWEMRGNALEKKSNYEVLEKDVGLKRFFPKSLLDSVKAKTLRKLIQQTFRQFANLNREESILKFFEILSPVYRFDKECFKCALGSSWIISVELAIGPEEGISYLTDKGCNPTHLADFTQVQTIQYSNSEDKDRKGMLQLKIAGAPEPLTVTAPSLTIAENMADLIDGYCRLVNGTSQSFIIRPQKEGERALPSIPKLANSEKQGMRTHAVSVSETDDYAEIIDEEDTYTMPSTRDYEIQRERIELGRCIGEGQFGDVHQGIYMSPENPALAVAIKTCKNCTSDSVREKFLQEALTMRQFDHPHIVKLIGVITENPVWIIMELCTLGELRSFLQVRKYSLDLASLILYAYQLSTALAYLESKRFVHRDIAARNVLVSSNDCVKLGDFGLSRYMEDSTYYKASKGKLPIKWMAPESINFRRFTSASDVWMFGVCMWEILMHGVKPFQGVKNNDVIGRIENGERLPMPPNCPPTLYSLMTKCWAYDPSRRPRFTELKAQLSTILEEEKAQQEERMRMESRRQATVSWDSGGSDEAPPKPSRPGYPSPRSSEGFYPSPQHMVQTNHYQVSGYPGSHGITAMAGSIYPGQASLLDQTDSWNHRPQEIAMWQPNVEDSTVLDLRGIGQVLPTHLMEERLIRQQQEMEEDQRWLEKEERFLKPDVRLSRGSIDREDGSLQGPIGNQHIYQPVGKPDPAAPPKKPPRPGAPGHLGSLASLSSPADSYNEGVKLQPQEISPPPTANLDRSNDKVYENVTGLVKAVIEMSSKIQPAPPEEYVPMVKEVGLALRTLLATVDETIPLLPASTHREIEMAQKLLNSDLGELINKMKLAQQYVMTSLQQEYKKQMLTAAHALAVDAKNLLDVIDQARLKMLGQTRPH
T1 sequence (Q96GD4 whole entry): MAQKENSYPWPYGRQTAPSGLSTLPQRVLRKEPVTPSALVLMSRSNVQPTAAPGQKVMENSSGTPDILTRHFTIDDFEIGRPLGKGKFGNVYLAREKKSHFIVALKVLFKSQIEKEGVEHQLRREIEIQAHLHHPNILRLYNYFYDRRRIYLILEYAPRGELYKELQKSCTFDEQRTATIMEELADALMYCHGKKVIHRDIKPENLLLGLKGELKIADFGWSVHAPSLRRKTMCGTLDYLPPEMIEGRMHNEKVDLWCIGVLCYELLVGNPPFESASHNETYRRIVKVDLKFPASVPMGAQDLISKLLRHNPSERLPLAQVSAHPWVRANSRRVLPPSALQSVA
T3 sequence (P12931 whole entry): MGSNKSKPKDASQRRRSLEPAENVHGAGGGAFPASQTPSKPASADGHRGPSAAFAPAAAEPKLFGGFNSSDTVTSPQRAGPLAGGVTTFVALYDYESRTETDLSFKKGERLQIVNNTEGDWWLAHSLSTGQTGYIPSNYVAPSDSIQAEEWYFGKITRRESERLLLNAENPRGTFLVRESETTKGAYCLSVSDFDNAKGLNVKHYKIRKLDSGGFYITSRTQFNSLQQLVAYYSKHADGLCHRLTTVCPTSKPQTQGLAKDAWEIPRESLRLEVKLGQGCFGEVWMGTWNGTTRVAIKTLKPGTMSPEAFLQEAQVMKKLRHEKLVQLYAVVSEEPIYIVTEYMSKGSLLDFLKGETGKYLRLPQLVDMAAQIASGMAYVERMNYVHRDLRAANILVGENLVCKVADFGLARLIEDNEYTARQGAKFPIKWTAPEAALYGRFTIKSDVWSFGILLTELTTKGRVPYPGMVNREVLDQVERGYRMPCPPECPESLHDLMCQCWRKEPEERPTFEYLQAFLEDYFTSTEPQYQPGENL

Row | IC50 [1] | EC50 [2] | IC50 [3] | IC50 [4] | SMILES
1 | < 20 nM | > 1 µM |  |  | COc1ccccc1S(=O)(=O)N1CCc2cnc(Nc3ccc(N4CCNCC4)cc3)nc21 [Example 344]
2 | > 1000 nM | > 1 µM |  |  | CC1(C)CN(c2ccccn2)c2nc(Nc3ccc(N4CCNCC4)cc3)ncc21 [Example 534]
3 |  | > 1 µM | < 20 nM | < 20 nM | CN(c1ncccc1Cn1ccc2cnc(Nc3ccc4c(c3)NCCO4)nc21)S(C)(=O)=O [Example 215]
4 |  | > 1 µM |  | < 20 nM | COc1cc(Nc2ncc3ccn(Cc4ccccc4N(C)S(C)(=O)=O)c3n2)ccc1N1CCN(CCO)CC1 [Example 421]
5 |  | > 1 µM | > 1000 nM |  | CC1(C)CN(S(=O)(=O)c2cccc3cccnc23)c2nc(Nc3ccc(N4CCN(CC(=O)O)CC4)cc3)ncc21 [Example 699]
6 |  | > 1 µM | > 1000 nM |  | COc1cccc(N(C)S(C)(=O)=O)c1Cn1ccc2cnc(Nc3ccc(N4CCN[C@@H](C)C4)cc3)nc21 [Example 701]
7 | < 20 nM | < 0.02 µM |  | < 20 nM | O=S(=O)(c1cccc2cccnc12)n1ccc2cnc(Nc3ccc(CN4CCCC(CO)C4)cc3)nc21 (stereo not shown) [Example 247]
8 | < 20 nM | > 1 µM |  |  | C[C@@H]1CNCCN1c1ccc(Nc2cc3c(ccn3S(=O)(=O)c3ccccc3C#N)cn2)cc1 [Example 479]
9 |  | > 1 µM | > 1000 nM |  | N#Cc1ccccc1S(=O)(=O)n1ncc2cnc(Nc3ccc(N4CCN(CCO)CC4)cc3)cc21 [Example 419]
10 |  | > 1 µM |  | < 20 nM | CN(c1ccccc1Cn1ccc2cnc(Nc3ccc4c(c3)CC3CNCCN43)nc21)S(C)(=O)=O (stereo not shown) [Example 526]
11 | < 20 nM | > 1 µM |  |  | COc1cc(Nc2ncc3ccn(S(=O)(=O)c4cccc5cccnc45)c3n2)cc(OC)c1OC [Example 392]
12 |  | > 1 µM | > 1000 nM | < 20 nM | CN(c1ncccc1Cn1ccc2cnc(Nc3ccc4[nH]cc(C5=CCNCC5)c4c3)nc21)S(C)(=O)=O [Example 152]
13 |  | > 1 µM |  | < 20 nM | CN(c1ncccc1Cn1ccc2cnc(Nc3ccc4[nH]c(=O)[nH]c4c3)nc21)S(C)(=O)=O [Example 77]
14 |  | > 1 µM | < 20 nM |  | Cc1cc(Nc2ncc3ccn(S(=O)(=O)c4cccs4)c3n2)ccc1N1CCNCC1 [Example 229]
15 | < 20 nM | > 1 µM |  |  | O=S(=O)(c1cccc2cccnc12)n1ccc2cnc(Nc3cnn(C4CCNCC4)c3)nc21 [Example 355]
16 | < 20 nM | > 1 µM |  |  | C[C@H]1CN(c2ccc(Nc3ncc4ccn(S(=O)(=O)c5ccccc5C#N)c4n3)cc2)CCN1 [Example 242]
17 |  | > 1 µM | > 1000 nM |  | CN(c1ncccc1Cn1ccc2cnc(Nc3ccc(N4CC5CC4CN5)cc3)cc21)S(C)(=O)=O (stereo not shown) [Example 371]
18 | < 20 nM | < 0.02 µM |  | < 20 nM | COc1cc(Nc2ncc3ccn(S(=O)(=O)c4cccc5cccnc45)c3n2)ccc1N1CCNCC1 [Example 198]
19 |  | > 1 µM | > 1000 nM |  | CN(C)C1CCN(c2ccc(Nc3ncc4c(n3)N(S(=O)(=O)c3cccc5ccccc35)CC4(C)C)cc2)CC1 [Example 755]
20 |  | > 1 µM | > 1000 nM |  | Cn1cc(Nc2cc3c(cn2)cnn3S(=O)(=O)c2cccc3cccnc23)cn1 [Example 349]

Row | IC50 [1] | EC50 [2] | IC50 [3] | IC50 [4] | SMILES
21 |  | > 1 µM |  | < 20 nM | CN1CCN(c2ccc(Nc3cc4c(ccn4S(=O)(=O)c4ccccc4C#N)cn3)cc2)CC1 [Example 506]
22 | < 20 nM | > 1 µM |  | < 20 nM | CN(c1ccccc1Cn1ccc2cnc(Nc3ccc(N4CCNCC4=O)cc3)nc21)S(C)(=O)=O [Example 550]
23 | < 20 nM | > 1 µM |  |  | CN(c1ncccc1Cn1ccc2cnc(Nc3ccc4c(c3)CC(=O)N4CCO)nc21)S(C)(=O)=O [Example 615]
24 |  | > 1 µM | > 1000 nM |  | COc1cc(N2CCNCC2)ccc1Nc1ncc2ccn(S(=O)(=O)c3cccc4ccc(C)nc34)c2n1 [Example 365]
25 |  | > 1 µM | > 1000 nM |  | CNC1CCN(c2ccc(Nc3ncc4c(n3)N(S(=O)(=O)c3cccc5ccccc35)CC4(C)C)cc2)CC1 [Example 707]
26 |  | > 1 µM | > 1000 nM |  | COc1cc(C(=O)N2CCOCC2)c(F)cc1Nc1ncc2ccn(Cc3ccccc3N(C)S(C)(=O)=O)c2n1 [Example 512]
27 |  | > 1 µM |  | < 20 nM | CN(c1ncccc1Cn1ccc2cnc(Nc3ccc4c(c3)CCC(=O)N4)cc21)S(C)(=O)=O [Example 31]
28 |  | > 1 µM | < 20 nM |  | CS(=O)(=O)Nc1ccccc1Cn1ccc2cnc(Nc3ccc(N4CCNCC4)cc3)nc21 [Example 519]
29 |  | > 1 µM | > 1000 nM |  | CN(C)C1CN(c2ccc(Nc3cc4c(ccn4S(=O)(=O)c4ccccc4C#N)cn3)cc2)C1 [Example 623]
30 |  | < 0.02 µM |  | < 20 nM | COc1ccc(N(C)S(C)(=O)=O)c(Cn2ccc3cnc(Nc4ccc(N5CCC(N(C)C)CC5)cc4)nc32)c1 [Example 706]
31 |  | > 1 µM |  |  | C[C@@H](O)CN1CCN(c2ccc(Nc3ncc4ccn(Cc5cccnc5N(C)S(C)(=O)=O)c4n3)cc2)CC1 [Example 666]
32 |  | > 1 µM | > 1000 nM |  | CN(c1ncccc1Cn1ccc2cnc(Nc3ccc(N4CCOCC4)cc3)cc21)S(C)(=O)=O [Example 397]
33 |  | > 1 µM | > 1000 nM |  | CN(c1ncccc1CN1c2nc(Nc3ccc(N4CCNCC4)cc3)ncc2C(C)(C)C1O)S(C)(=O)=O (stereo not shown) [Example 455]
34 |  | > 1 µM |  |  | CC(=O)N1CCN(c2ccc(Nc3cc4c(cn3)cnn4S(=O)(=O)c3ccccc3C#N)cc2)CC1 [Example 341]
35 |  | > 1 µM |  |  | CC1CN(c2ccc(Nc3ncc4ccn(Cc5cccnc5N(C)S(C)(=O)=O)c4n3)cc2)CC(C)N1 (stereo not shown) [Example 522]
36 |  | > 1 µM | > 1000 nM |  | CN(c1ccccc1Cn1ccc2cnc(Nc3ccc(-n4ccccc4=O)cc3)nc21)S(C)(=O)=O [Example 576]
37 |  | > 1 µM |  |  | CN(C)Cc1ccc(Nc2ncc3ccn(Cc4cccnc4N(C)S(C)(=O)=O)c3n2)cc1 [Example 207]
38 |  | > 1 µM |  |  | Cc1ccccc1S(=O)(=O)n1ccc2cnc(Nc3ccc(N4CCNCC4)cc3)nc21 [Example 233]
39 |  | > 1 µM |  | < 20 nM | CN(c1ccccc1Cn1ncc2cnc(Nc3ccc4c(c3)CCC(=O)N4)cc21)S(C)(=O)=O [Example 225]
40 |  | > 1 µM |  |  | CCC1CN(c2ccc(Nc3ncc4ccn(Cc5cccnc5N(C)S(C)(=O)=O)c4n3)cc2)CCN1 (stereo not shown) [Example 645]
